Consider 28 compounds from patent US20240182470A1, “KRASG12C MUTANT PROTEIN INHIBITOR, PREARATION AND USE THEREOF” (YA THERAPEUTICS INC, priority 2021, published 2024).

For this assay, the system named is H358 (KRAS G12C mutant) cells. Kind of assay: Tumor cell proliferation inhibition assay (Cell Titer-Glo, 72 h). Format: cell-based. Particulars: inhibition of tumor cell proliferation, 72 hours with compound, 10% fetal bovine serum; read-out: NCI-H538 IC50(nm). As to the method:
The H358 (KRAS G^12C mutant) cells were digested, centrifuged and resuspended, and the cell density was measured with a Scepter automatic cell counter. The cells were diluted to a solution containing 44,000 cells per milliliter, and the density-adjusted cell solution was 90 microliters per well. into a 96-well culture plate. The 96-well plate was placed in a 37° C., 5% CO2 incubator. After the cells were cultured for 24 hours, different concentrations of the compounds to be tested were added. The cells were incubated with the compounds for 72 hours in the presence of 10% fetal bovine serum. Glo Luminescent Cell Viability Assay Kit (see manufacturer's instructions for details) was used to measure ATP content to assess cell growth inhibition. Briefly, 30 μl of Cell Titer-Glo reagent was added to each well, and the plate was shaken for 10 minutes to induce cell lysis. Fluoroskan
Ascent FL (Thermo) assay was used to record the fluorescent signal, and the maximum signal value was obtained from cells treated with dimethyl sulfoxide for 72 hours. The minimum signal value was obtained from the medium alone (the number of cells was zero), and the % inhibition rate=(the maximum signal value compound signal value)/(the maximum signal value—the minimum signal value×100%, and the data were processed using Graphpadprism 5 software. By sigmoid Dose-response curve fitting to calculate the IC50 value. “A” means IC50≤50 nM; “B” means 50<IC50≤500 nM; “C” means 500<IC50≤2000 nM; “D” means 2000 nM<IC50
On the technique in general: Cellular ATP, detected with luciferase, serves as a proxy for viable cell number.

A value given as a limit tells only on which side of the number the result lay.

Turning to “7-(8-Fluoronaphthalene)-4-(((R)-4-Acryloyl-2-methylpiperazine)-1-yl)-2-(((1-(pyrrolidin-1-yl)methyl cyclopropan-1-yl)methoxy)pyridine[2,3-d]lopyrimidine [Compound 13]”, the concentration for half-maximal inhibition (IC50) was at most 50 nM.

For `C=C(F)C(=O)N1CCN(c2nc(OCC34CCCN3CCC4)nc3c(F)c(-c4cc(O)cc5cccc(F)c45)ccc23)C[C@@H]1CC#N` [Compound 57], the 50% inhibitory concentration (IC50) was at most 50 nM.

Take “6-Chloro-7-(8-methylnaphthyl)-8-fluoro-4-(((R)-4-acryloyl-2-methylpiperazine)-1-yl)-2-((((S))-2,2-Difluorotetrahydro-1H-pyrincycline-7a(5H)-yl)methoxy)quinazoline [Compound 74]”: the IC50 was at most 50 nM.

Take `C=CC(=O)N1CCN(c2nc(OC[C@@]34CCCN3C[C@H](F)C4)nc3nc(-c4cccc5cccc(C)c45)ccc23)[C@H](C)C1` [Compound 89, 7-(8-Methylnaphthyl)-4-(((R)-4-Acryloyl-2-methylpiperazine)-1-yl)-2-(((2R,7aS)-2-fluorotetrahydro-1H-pyrincycl-7a(5H)-yl)methoxy)pyridine[2,3-d]lopyrimidine]: the IC50 was at most 50 nM.

As to `C=C(F)C(=O)N1CCN(c2nc(OC[C@@]34CCCN3C[C@H](F)C4)nc3c(F)c(-c4cc(O)cc5cccc(F)c45)c(Cl)cc23)[C@H](C)C1` [Compound 44, 6-Chloro-74(3-hydroxy-8-fluoronaphthyl)-8-fluoro-4-(((R)-4-(2-fluoroacryloyl)-2-methylpiperazine)-1-yl)-2-(((2R,7aS)-2-fluorotetrahydro-1H-pyrincycline-7a(5H)-yl)methoxy)quinazoline], the IC50 is at most 50 nM.

Regarding “7-(8-Methylnaphthyl)-6-fluoro-4-(((R)-4-acryloyl-2-methylpiperazine)-1-yl)-2-(((2R,7aS)-2-fluorotetrahydro-1H-pyrincyclo-7a(5H)-yl)methoxy)pyridine[2,3-d]lopyrimidine [Compound 81]”, the concentration for half-maximal inhibition (IC50) is at most 50 nM.

Turning to `C=C(F)C(=O)N1CCN(c2cc(OC[C@@H]3CCCN3C)nc3nc(-c4cccc5cccc(F)c45)c(F)cc23)[C@H](C)C1` [Compound 8], the IC50 is at most 50 nM.

As to `C=C(F)C(=O)N1CCN(c2nc(OC[C@@]34CCCN3C[C@H](F)C4)nc3nc(-c4cccc5cccc(C)c45)ccc23)C[C@@H]1CC#N` [Compound 93], the IC50 is at most 50 nM.

Regarding “7-(8-Fluoronaphthyl)-6-fluoro-4-(((R)-4-acryloyl-2-methylpiperazine)-1-yl)-2-(((S)-2,2-difluorotetrahydro-1H-pyrincycl-7a(5H)-yl)methoxy)pyridine[2,3-d]lopyrimidine [Compound 79]”, the IC50 is at most 50 nM.

For `C=CC(=O)N1CCN(c2nc(OC[C@@]34CCCN3CC(F)(F)C4)nc3nc(-c4cccc5cccc(F)c45)ccc23)[C@H](C)C1` [Compound 86, 7-(8-Fluoronaphthyl)-4-(((R)-4-Acryloyl-2-methylpiperazine)-1-yl)-2-(((S)-2,2-difluorotetrakisHydro-1H-pyrincycl-7a(5H)-yl)methoxy)pyridine[2,3-d]lopyrimidine], the IC50 is at most 50 nM.

“7-(8-Fluoronaphthyl)-8-fluoro-(((S)-4-(2-fluoroacryloyl)-3-carbonitrileethylpiperazine)-1-yl)-2-((((S)-2,2-difluorotetrahydro-1H-pyrincycline-7a(5H)-yl)methoxy)quinazoline [Compound 66]”: the concentration for half-maximal inhibition (IC50) is at most 50 nM.

As to `C=CC(=O)N1CCN(c2nc(OCC34CCCN3CCC4)nc3c(F)c(-c4cc(O)cc5cccc(F)c45)ccc23)C[C@@H]1CC#N` [Compound 55], the IC50 was at most 50 nM.

“7-(8-Fluoronaphthyl)-8-fluoro-4-(((S)-4-(2-fluoro acryloyl)-3-c arbonitrileethylpiperazine)-1-yl)-2-((tetrakis Hydrogen-1H-pyrinyl-7a(5H)-yl)methoxy)quinazoline [Compound 88]”: the IC50 was at most 50 nM.

For the compound “6-Chloro-74(3-hydroxy-8-fluoronaphthyl)-8-fluoro-4-(((S)-4-(2-fluoroacryloyl)-3-carbonitrileethylpiperazine)-1-yl)-2-(((2R,7aS)-2-fluorotetrahydro-1H-pyrincycline-7a(5H)-yl)methoxy)quinazoline [Compound 43]”, the half-maximal inhibitory concentration (IC50) was at most 50 nM.

Take `C=C(F)C(=O)N1CCN(c2cc(OC[C@@H]3CCCN3C)nc3nc(-c4cccc5cccc(F)c45)c(F)cc23)C[C@@H]1CC#N` [Compound 6]: the IC50 was at most 50 nM.

With `C=C(F)C(=O)N1CCN(c2nc(OC[C@@]34CCCN3C[C@H](F)C4)nc3nc(-c4cc(O)cc5cccc(F)c45)c(F)cc23)C[C@@H]1CC#N` [Compound 33, 7-(3-Hydroxy-8-fluoronaphthyl)-6-fluoro-4-(((S)-4-(2-fluoroacryloyl)-3-carbonitrileethylpiperazine)-1-yl)-2-(((2R,7aS)-2-fluorotetrahydro-1H-pyrincycl-7a(5H)-yl)methoxy)pyridine[2,3-d]lopyrimidine], the concentration for half-maximal inhibition (IC50) is at most 50 nM.

Regarding `C=C(F)C(=O)N1CCN(c2nc(OC[C@@]34CCCN3CC(F)(F)C4)nc3nc(-c4cc(O)cc5cccc(F)c45)ccc23)C[C@@H]1CC#N` [Compound 91, 7-(3-Hydroxy-8-fluoronaphthyl)-4-(((S)-4-(2-fluoroacryloyl)-3-carbonitrileethylpiperazine)-1-yl)-2-(((S)-2,2-difluorotetrahydro-1H-pyrincycl-7a(5H)-yl)methoxy)pyridine[2,3-d]lopyrimidine], the concentration for half-maximal inhibition (IC50) was at most 50 nM.

On to `C=CC(=O)N1CCN(c2nc(OC[C@@]34CCCN3C[C@H](F)C4)nc3nc(-c4cccc5cccc(F)c45)c(F)cc23)C[C@H]1CC#N` [Compound 25, 7-(8-Fluoronaphthyl)-6-fluoro-4-(((R)-4-acryloyl-3-carbonitrileethylpiperazine)-1-yl)-2-(((2R,7aS)-2-fluorotetrahydro-1H-pyrincycl-7a(5H)-yl)methoxy)pyridine[2,3-d]lopyrimidine], for which the IC50 was at most 50 nM.

In the case of “7-(8-fluoronaphthyl)-8-fluoro-4-(((R)-4-acryloyl-2-methylpiperazine)-1-yl)-2-(((S)-2,2-difluorotetrahydro-1H-pyrincyclo-7a(5H)-yl)methoxy)quinazoline [Compound 59]”, the IC50 was at most 50 nM.

Consider `C=CC(=O)N1CCN(c2nc(OCC34CCCN3CCC4)nc3c(F)c(-c4cc(O)cc5cccc(F)c45)ccc23)[C@H](C)C1` [Compound 49, 7-(3-Hydroxy-8-fluoronaphthyl)-8-fluoro-4-(((R)-4-acryloyl-2-methylpiperazine)-1-yl)-2-((tetrahydro-1H-pyrinyl-7a(5H)-yl)methoxy)quinazoline], for which the half-maximal inhibitory concentration (IC50) was at most 50 nM.

Consider “7-(8-Chloronaphthalene)-4-(((R)-4-Acryloyl-2-methylpiperazine)-1-yl)-2-(((1-(pyrrolidin-1-yl)methancycloprop an-1-yl)methoxy)pyridine[2,3-d]lopyrimidine [Compound 14]”, for which the IC50 was at most 50 nM.

Turning to “7-(8-Methylnaphthyl)-6-fluoro-4-(((S)-4-(2-fluoro acryloyl)-3-carbonitrileethylpiperazine)-1-yl)-2-(((S)-2,2-difluorotetrahydro-1H-pyrincycl-7a(5H)-yl)methoxy)pyridine[2,3-d]lopyrimidine [Compound 85]”, the IC50 was at most 50 nM.

As to “7-(8-Methylnaphthalene)-4-(((R)-4-Acryloyl-3-carbonitrileethylpiperazine)-1-yl)-24(1-(N,N-Dimethyl)amino)methylcyclopropan-1-yl)methoxy)pyridine[2,3-d]lopyrimidine [Compound 19]”, the IC50 was at most 50 nM.

Consider “7-(3-Hydroxy-8-fluoronaphthyl)-8-fluoro-4-(((S)-4-(2-fluoroacryloyl)-3-carbonitrileethylpiperazine)-2-((((S)-2,2-Difluorotetrahydro-1H-pyrincycline-7a(5H)-yl)methoxy)quinazoline [Compound 65]”, for which the IC50 is at most 50 nM.

As to `C=C(F)C(=O)N1CCN(c2nc(OC[C@@]34CCCN3C[C@H](F)C4)nc3nc(-c4cccc5cccc(F)c45)c(F)cc23)C[C@@H]1CC#N` [Compound 29], the IC50 is at most 50 nM.

For the compound “7-(8-Chloronaphthalene)-4-(((R)-4-Acryloyl-3-carbonitrileethylpiperazine)-1-yl)-2-(((1-(pyrrolidin-1-yl)methylcyclopropan-1-yl)methoxy)pyridine[2,3-d]lopyrimidine [Compound 16]”, the IC50 is at most 50 nM.

Take “7-(3-Hydroxy-8-fluoronaphthyl)-8-fluoro-4-(((R)-4-acryloyl-2-methylpiperazine)-1-yl)-2-(((S)-2,2-difluorotetrahydro-1H-pyrincycline-7a(5H)-yl)methoxy)quinazoline [Compound 70]”: the IC50 was at most 50 nM.

Regarding `C=CC(=O)N1CCN(c2nc(OC[C@@]34CCCN3C[C@H](F)C4)nc3nc(-c4cccc5cccc(F)c45)c(F)cc23)[C@H](C)C1` [Compound 26, 7-(8-Fluoronaphthyl)-6-fluoro-4-(((R)-4-acryloyl-2-methylpiperazine)-1-yl)-2-(((2R,7aS)-2-Fluorotetrahydro-1H-pyrincycl-7a(5H)-yl)methoxy)pyridine[2,3-d]lopyrimidine], the IC50 was at most 50 nM.

What is called IC50 is the midpoint of a concentration-inhibition curve.
